Tests used:
[1] = molecular target: JAK 1 (Homo sapiens, UniProt P23458); assay: Biochemical potency on JAK1, TR-FRET LANCE Ultra kinase assay (examples 1-99); settings: ATP at Km (20 μM), read-out: JAK1 inhibitory activity (pIC50 class) (converted)
Experimental: (§1) The objective of this study was to assess the capability of compounds to inhibit all 4 JAK isoforms activity in a cell-free environment. Assay for JAK 1, JAK 2, JAK 3 and TYK2 were performed by Time-resolved fluorescence resonance energy transfer (TR-FRET) technology. It consists in the interaction of two labelled binding partners detected by the energy transfer from an excited donor to an acceptor dye and measurement of light emission by the acceptor dye. LANCE Ultra kinase assay was used. In presence of JAK 1, JAK 2, JAK 3 and TYK2 kinases and ATP (corresponding to Km), the ULight peptide substrate (LANCE Ulight-JAK-1 (Tyr1023) Peptide, Perkin Elmer, TRF0121) is phosphorylated. It is then captured by Eu-anti-phospho-substrate antibody (LANCE Eu-W1024 Anti-phosphotyrosine (PT66), Perkin Elmer, AD0069), which bring the Eu-chelate donor and ULight acceptor dyes into close proximity. Upon excitation at 320 nm, the Eu-chelate transfers its energy to the ULight dye, resulting in a fluorescent light emission at 665 nm.
(§2) Serial dilutions of compounds in pure DMSO are prepared from 10 mM DMSO stock solutions. Compounds were tested in 384-well plate for 11 consecutive 5-fold dilutions starting from 20 μM highest concentration (20 μM-[…]). 200 nL of compound were transferred from mother plate to test plate by using Mosquito (TTP labtech). Assay was performed in 384-well Perkin Elmer test plate in 20 μL assay volume (kinase reaction) and 40 μL total volume (stopping reagent and antibody detection reagents). In 10 μL of substrate solution (peptide+ATP) 30/50/20/10 nM of peptide and 20/0.7/0.2/12 μM of ATP were added for JAK 1, JAK 2, JAK 3 and TYK2 respectively. 10 μL of enzyme solution was added to kinase reaction at these concentrations: 0.15/0.083/0.025/0.144 ng/μL of JAK 1, JAK 2, JAK 3 and TYK2 respectively. After shaking and 1.5 h of incubation at r.t., 20 μL of Stop (10 μL EDTA) and Detection mixture (10 μL Europium-anti-phospho antibody, final: 0.5 nM) were added. Reading was performed after 1 h of incubation on a EnVision 2104 reader (Perkin Elmer).
(§3) Calculation of IC50 data, curves and QC analysis was performed by using Excel tool and GraphPadPrism software, v9. Briefly, individual concentration-effect curves are generated by plotting the logarithm of the tested concentration of tested compounds (X) vs. corresponding percent inhibition values (Y) using least squares (ordinary) fit. Best fit IC50 values are calculated using Log(inhibitor) vs. normalized response—Variable slope equation, where Y=100/(1+10^((Log IC50−X)*HillSlope)). QC criteria parameters (Z′, S:B, R2, HillSlope) were checked for every IC50 curve. Calculation of IC50 data, curves and QC analysis were made using Excel tools and GraphPadPrism software. QC criteria parameters: Z′≥0.5, Hill Slope range 0.5 to 5, S:B>2.

[2] = molecular target: T1, JAK 3 (Homo sapiens, UniProt P52333); assay: Biochemical potency on JAK3, TR-FRET LANCE Ultra kinase assay (examples 1-99); settings: ATP at Km (0.2 μM), read-out: JAK3 inhibitory activity (pIC50 class) (converted)
T1 sequence (P52333 1-1124): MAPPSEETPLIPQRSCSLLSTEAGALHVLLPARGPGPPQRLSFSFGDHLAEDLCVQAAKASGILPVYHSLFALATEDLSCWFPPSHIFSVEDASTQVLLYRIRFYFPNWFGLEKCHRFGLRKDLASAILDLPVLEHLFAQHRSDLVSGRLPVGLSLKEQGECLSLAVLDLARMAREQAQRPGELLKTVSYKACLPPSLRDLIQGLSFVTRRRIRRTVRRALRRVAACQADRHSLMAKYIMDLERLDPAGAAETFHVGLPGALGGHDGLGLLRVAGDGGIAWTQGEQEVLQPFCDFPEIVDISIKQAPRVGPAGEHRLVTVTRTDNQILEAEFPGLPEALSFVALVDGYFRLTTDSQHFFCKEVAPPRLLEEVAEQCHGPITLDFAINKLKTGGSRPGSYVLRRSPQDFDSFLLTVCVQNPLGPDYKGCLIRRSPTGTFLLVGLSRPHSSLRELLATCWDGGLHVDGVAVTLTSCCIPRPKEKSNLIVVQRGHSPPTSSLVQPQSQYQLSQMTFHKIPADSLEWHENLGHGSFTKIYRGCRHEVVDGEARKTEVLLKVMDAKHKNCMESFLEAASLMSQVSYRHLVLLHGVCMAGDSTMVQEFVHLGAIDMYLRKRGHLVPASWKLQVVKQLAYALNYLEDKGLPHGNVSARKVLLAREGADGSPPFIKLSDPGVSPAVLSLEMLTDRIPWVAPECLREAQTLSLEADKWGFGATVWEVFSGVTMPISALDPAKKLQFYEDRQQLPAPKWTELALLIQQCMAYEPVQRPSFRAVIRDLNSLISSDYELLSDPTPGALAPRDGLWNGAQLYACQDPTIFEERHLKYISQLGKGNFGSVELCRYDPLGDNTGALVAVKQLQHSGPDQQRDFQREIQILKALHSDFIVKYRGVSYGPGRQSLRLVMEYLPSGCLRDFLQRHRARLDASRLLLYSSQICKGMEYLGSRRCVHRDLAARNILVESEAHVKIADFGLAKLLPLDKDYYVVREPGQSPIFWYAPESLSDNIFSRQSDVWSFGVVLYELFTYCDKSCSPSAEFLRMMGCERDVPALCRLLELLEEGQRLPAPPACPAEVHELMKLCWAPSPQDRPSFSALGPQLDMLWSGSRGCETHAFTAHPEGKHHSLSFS
Experimental: as §1, §2, §3

[3] = molecular target: JAK 2 (Homo sapiens, UniProt O60674); assay: Biochemical potency on JAK2, TR-FRET LANCE Ultra kinase assay (examples 1-99); settings: ATP at Km (0.7 μM), read-out: JAK2 inhibitory activity (pIC50 class) (converted)
Experimental: as §1, §2, §3

[4] = molecular target: TYK2 (Homo sapiens, UniProt P29597); assay: Biochemical potency on Tyk2, TR-FRET LANCE Ultra kinase assay (examples 1-99); settings: ATP at Km (12 μM), read-out: Tyk2 inhibitory activity (pIC50 class) (converted)
Experimental: as §1, §2, §3

Chain of TYK2 (P29597 whole entry): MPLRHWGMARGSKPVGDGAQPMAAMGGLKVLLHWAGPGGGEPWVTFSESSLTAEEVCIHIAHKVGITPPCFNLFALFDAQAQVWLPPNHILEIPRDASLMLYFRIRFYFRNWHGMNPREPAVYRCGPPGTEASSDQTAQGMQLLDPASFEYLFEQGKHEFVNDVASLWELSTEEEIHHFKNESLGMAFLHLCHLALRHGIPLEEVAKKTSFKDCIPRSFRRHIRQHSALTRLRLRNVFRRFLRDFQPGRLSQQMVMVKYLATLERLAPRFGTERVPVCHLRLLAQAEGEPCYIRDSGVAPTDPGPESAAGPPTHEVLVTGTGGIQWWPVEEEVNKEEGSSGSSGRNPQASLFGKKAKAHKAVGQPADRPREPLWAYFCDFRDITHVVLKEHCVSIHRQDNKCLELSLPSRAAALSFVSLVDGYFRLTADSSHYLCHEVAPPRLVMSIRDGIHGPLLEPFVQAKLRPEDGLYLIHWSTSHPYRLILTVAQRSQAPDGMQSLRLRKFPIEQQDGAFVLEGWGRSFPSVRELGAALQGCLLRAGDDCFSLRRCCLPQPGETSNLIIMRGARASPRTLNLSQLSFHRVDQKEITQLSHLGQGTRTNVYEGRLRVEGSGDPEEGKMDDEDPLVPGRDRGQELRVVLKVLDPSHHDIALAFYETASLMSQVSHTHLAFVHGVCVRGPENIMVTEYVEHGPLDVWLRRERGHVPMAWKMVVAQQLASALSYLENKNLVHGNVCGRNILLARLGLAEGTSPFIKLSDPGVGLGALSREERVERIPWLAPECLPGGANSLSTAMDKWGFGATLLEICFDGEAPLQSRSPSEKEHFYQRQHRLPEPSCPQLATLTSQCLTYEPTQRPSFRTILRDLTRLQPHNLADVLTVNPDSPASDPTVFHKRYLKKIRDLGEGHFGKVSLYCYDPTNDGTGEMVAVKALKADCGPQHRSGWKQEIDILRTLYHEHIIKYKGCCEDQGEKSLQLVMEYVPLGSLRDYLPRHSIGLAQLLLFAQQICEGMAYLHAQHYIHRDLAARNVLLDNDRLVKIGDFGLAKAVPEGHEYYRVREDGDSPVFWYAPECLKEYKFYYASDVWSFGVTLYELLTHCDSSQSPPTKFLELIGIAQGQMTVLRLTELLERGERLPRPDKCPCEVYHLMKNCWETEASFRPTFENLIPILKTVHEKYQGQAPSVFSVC
Chain of JAK 2 (O60674 whole entry): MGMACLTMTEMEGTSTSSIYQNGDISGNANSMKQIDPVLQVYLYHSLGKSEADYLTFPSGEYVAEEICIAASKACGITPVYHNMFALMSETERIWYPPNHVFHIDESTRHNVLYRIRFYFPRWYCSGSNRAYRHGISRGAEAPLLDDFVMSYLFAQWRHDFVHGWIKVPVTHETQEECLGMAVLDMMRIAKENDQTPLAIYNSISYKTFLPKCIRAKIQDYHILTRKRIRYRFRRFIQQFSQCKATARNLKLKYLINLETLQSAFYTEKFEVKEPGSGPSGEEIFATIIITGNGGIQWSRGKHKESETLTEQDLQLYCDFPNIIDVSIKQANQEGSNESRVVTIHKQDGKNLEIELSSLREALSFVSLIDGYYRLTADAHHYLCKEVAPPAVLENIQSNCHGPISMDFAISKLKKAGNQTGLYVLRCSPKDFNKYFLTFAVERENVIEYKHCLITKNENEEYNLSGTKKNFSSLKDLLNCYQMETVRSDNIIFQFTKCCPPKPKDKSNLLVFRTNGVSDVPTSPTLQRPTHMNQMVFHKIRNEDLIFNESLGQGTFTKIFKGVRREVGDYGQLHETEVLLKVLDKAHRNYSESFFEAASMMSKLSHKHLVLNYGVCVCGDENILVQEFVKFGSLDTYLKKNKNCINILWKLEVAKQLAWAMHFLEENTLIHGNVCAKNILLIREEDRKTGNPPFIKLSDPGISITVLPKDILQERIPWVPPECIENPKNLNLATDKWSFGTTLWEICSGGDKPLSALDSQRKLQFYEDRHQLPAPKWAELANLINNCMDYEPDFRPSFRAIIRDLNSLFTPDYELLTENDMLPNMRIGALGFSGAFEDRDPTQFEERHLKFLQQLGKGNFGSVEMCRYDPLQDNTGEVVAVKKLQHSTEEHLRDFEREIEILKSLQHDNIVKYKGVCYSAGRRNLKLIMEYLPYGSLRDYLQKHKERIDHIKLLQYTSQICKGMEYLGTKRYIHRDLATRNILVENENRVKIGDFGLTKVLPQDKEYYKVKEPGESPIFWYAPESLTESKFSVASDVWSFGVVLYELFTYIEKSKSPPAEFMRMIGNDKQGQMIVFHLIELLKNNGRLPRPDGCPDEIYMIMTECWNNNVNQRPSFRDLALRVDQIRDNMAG
Chain of JAK 1 (P23458 whole entry, canonical isoform): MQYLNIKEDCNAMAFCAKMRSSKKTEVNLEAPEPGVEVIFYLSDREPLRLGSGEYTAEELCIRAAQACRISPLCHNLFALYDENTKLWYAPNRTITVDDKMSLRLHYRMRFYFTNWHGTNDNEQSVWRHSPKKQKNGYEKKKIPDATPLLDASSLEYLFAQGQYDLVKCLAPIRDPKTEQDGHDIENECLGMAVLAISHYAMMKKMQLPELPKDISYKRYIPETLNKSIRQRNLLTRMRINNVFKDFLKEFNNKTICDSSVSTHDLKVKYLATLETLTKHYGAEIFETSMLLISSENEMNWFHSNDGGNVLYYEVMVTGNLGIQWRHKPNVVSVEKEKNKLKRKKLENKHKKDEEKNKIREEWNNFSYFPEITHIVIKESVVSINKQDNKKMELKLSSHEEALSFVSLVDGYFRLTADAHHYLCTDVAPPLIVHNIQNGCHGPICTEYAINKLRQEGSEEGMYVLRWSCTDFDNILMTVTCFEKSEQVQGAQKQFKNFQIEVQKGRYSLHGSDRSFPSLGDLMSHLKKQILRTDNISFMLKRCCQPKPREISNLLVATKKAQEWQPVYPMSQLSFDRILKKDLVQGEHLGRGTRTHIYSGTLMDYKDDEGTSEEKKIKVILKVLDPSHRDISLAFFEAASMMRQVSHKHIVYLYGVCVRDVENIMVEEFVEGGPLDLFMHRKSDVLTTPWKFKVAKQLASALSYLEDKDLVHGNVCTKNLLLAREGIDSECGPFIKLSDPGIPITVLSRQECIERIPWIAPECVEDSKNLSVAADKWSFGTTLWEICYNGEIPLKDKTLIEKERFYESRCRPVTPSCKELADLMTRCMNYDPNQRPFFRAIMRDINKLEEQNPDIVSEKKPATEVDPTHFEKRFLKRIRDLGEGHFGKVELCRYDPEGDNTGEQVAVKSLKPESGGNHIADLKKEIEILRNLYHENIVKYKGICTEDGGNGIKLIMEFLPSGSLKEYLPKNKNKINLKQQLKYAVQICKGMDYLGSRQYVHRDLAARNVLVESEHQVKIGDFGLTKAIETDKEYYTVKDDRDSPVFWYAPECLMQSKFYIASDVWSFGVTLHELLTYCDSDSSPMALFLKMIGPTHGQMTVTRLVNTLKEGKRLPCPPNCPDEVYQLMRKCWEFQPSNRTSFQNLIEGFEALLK

`COc1ccc(F)cc1-n1nc(C)c2cnc(-c3cnn4cccnc34)cc21` [Example 1, 1-(5-fluoro-2-methoxyphenyl)-3-methyl-6-(pyrazolo[1,5-a]pyrimidin-3-yl)-1H-pyrazolo[4,3-c]pyridine] showed an IC50 [1] of 5.01 to 50.1 nM, an IC50 [2] of 5.01 to 50.1 nM and an IC50 [3] of at most 5.01 nM. The IC50 [4] was 5.01 to 50.1 nM.
For `COc1ccc(Cl)cc1-n1nc(C)c2cnc(-c3cnn4cccnc34)cc21` [Example 2, 1-(5-chloro-2-methoxyphenyl)-3-methyl-6-(pyrazolo[1,5-a]pyrimidin-3-yl)-1H-pyrazolo[4,3-c]pyridine], the IC50 [1] was at most 5.01 nM, the IC50 [2] was 5.01 to 50.1 nM and the IC50 [3] was at most 5.01 nM. It also gave an IC50 [4] of 5.01 to 50.1 nM.
With `COc1ccc(C(F)F)cc1-n1nc(C)c2cnc(-c3cnn4cccnc34)cc21` [Example 3, 1-(5-(difluoromethyl)-2-methoxyphenyl)-3-methyl-6-(pyrazolo[1,5-a]pyrimidin-3-yl)-1H-pyrazolo[4,3-c]pyridine] the IC50 [1] was 5.01 to 50.1 nM, the IC50 [2] was 5.01 to 50.1 nM and the IC50 [3] was at most 5.01 nM. For the same molecule, the IC50 [4] was 5.01 to 50.1 nM.
`COc1ccc(C(F)(F)F)cc1-n1nc(C)c2cnc(-c3cnn4cccnc34)cc21` [Example 4, 1-(2-methoxy-5-(trifluoromethyl)phenyl)-3-methyl-6-(pyrazolo[1,5-a]pyrimidin-3-yl)-1H-pyrazolo[4,3-c]pyridine] showed an IC50 [1] of 5.01 to 50.1 nM, an IC50 [2] of 5.01 to 50.1 nM and an IC50 [3] of at most 5.01 nM. The IC50 [4] was over 50.1 nM.
Molecule `CSc1ccc(Cl)cc1-n1nc(C)c2cnc(-c3cnn4cccnc34)cc21` [Example 5, 1-(5-chloro-2-(methylthio)phenyl)-3-methyl-6-(pyrazolo[1,5-a]pyrimidin-3-yl)-1H-pyrazolo[4,3-c]pyridine] has an IC50 [1] of 5.01 to 50.1 nM, an IC50 [2] of 5.01 to 50.1 nM and an IC50 [3] of at most 5.01 nM. The IC50 [4] was 5.01 to 50.1 nM.
For `Cc1nn(-c2cc(Cl)ccc2SC(F)F)c2cc(-c3cnn4cccnc34)ncc12` [Example 6, 1-(5-chloro-2-((difluoromethyl)thio)phenyl)-3-methyl-6-(pyrazolo[1,5-a]pyrimidin-3-yl)-1H-pyrazolo[4,3-c]pyridine], the IC50 [1] was 5.01 to 50.1 nM, the IC50 [2] was at most 5.01 nM and the IC50 [3] was 5.01 to 50.1 nM. It also gave an IC50 [4] of 5.01 to 50.1 nM.
With `Cc1nn(-c2cc(Cl)ccc2OC2CC2)c2cc(-c3cnn4cccnc34)ncc12` [Example 7, 1-(5-chloro-2-cyclopropoxyphenyl)-3-methyl-6-(pyrazolo[1,5-a]pyrimidin-3-yl)-1H-pyrazolo[4,3-c]pyridine] the IC50 [1] was 5.01 to 50.1 nM, the IC50 [2] was at most 5.01 nM and the IC50 [3] was at most 5.01 nM. The IC50 [4] was 5.01 to 50.1 nM.
`COc1ccc(OC)c(-n2nc(C)c3cnc(-c4cnn5cccnc45)cc32)c1` [Example 8, 1-(2,5-dimethoxyphenyl)-3-methyl-6-(pyrazolo[1,5-a]pyrimidin-3-yl)-1H-pyrazolo[4,3-c]pyridine] gave an IC50 [1] of 5.01 to 50.1 nM, an IC50 [2] of 5.01 to 50.1 nM and an IC50 [3] of at most 5.01 nM. For the same molecule, the IC50 [4] was over 50.1 nM.
Molecule `COc1ccc(S(=O)(=O)CCCO)cc1-n1nc(C)c2cnc(-c3cnn4cccnc34)cc21` [Example 9, 3-((4-methoxy-3-(3-methyl-6-(pyrazolo[1,5-a]pyrimidin-3-yl)-1H-pyrazolo[4,3-c]pyridin-1-yl)phenyl)sulfonyl)propan-1-ol] has an IC50 [1] of 5.01 to 50.1 nM, an IC50 [2] of 5.01 to 50.1 nM and an IC50 [3] of at most 5.01 nM. For the same molecule, the IC50 [4] was over 50.1 nM.
For `CCCS(=O)(=O)c1ccc(OC)c(-n2nc(C)c3cnc(-c4cnn5cccnc45)cc32)c1` [Example 10, 1-(2-methoxy-5-(propylsulfonyl)phenyl)-3-methyl-6-(pyrazolo[1,5-a]pyrimidin-3-yl)-1H-pyrazolo[4,3-c]pyridine], the IC50 [1] was 5.01 to 50.1 nM, the IC50 [2] was at most 5.01 nM and the IC50 [3] was 5.01 to 50.1 nM. The IC50 [4] was over 50.1 nM.
With `Cc1nn(-c2cc(Cl)ccc2OC(F)F)c2cc(-c3cnn4cccnc34)ncc12` [Example 11, 1-(5-chloro-2-(difluoromethoxy)phenyl)-3-methyl-6-(pyrazolo[1,5-a]pyrimidin-3-yl)-1H-pyrazolo[4,3-c]pyridine] the IC50 [1] was at most 5.01 nM, the IC50 [2] was at most 5.01 nM and the IC50 [3] was at most 5.01 nM. It also gave an IC50 [4] of 5.01 to 50.1 nM.
`Cc1nn(-c2cc(Cl)ccc2O)c2cc(-c3cnn4cccnc34)ncc12` [Example 12, 4-chloro-2-(3-methyl-6-(pyrazolo[1,5-a]pyrimidin-3-yl)-1H-pyrazolo[4,3-c]pyridin-1-yl)phenol] was tested, and the IC50 [1] was 5.01 to 50.1 nM, the IC50 [2] was 5.01 to 50.1 nM and the IC50 [3] was at most 5.01 nM. For the same molecule, the IC50 [4] was 5.01 to 50.1 nM.
`CSc1ccc(OC(F)F)c(-n2nc(C)c3cnc(-c4cnn5cccnc45)cc32)c1` [Example 13, 1-(2-(difluoromethoxy)-5-(methylthio)phenyl)-3-methyl-6-(pyrazolo[1,5-a]pyrimidin-3-yl)-1H-pyrazolo[4,3-c]pyridine] showed an IC50 [1] of at most 5.01 nM, an IC50 [2] of at most 5.01 nM and an IC50 [3] of at most 5.01 nM. It also gave an IC50 [4] of 5.01 to 50.1 nM.
`CNS(=O)(=O)c1ccc(OC)c(-n2nc(C)c3cnc(-c4cnn5cccnc45)cc32)c1` [Example 14, 4-methoxy-N-methyl-3-(3-methyl-6-(pyrazolo[1,5-a]pyrimidin-3-yl)-1H-pyrazolo[4,3-c]pyridin-1-yl)benzenesulfonamide] was tested, and the IC50 [1] was 5.01 to 50.1 nM, the IC50 [2] was at most 5.01 nM and the IC50 [3] was at most 5.01 nM. For the same molecule, the IC50 [4] was 5.01 to 50.1 nM.
`COc1ccc(S(=O)(=O)NCCO)cc1-n1nc(C)c2cnc(-c3cnn4cccnc34)cc21` [Example 15, N-(2-hydroxyethyl)-4-methoxy-3-(3-methyl-6-(pyrazolo[1,5-a]pyrimidin-3-yl)-1H-pyrazolo[4,3-c]pyridin-1-yl)benzenesulfonamide] showed an IC50 [1] of 5.01 to 50.1 nM, an IC50 [2] of 5.01 to 50.1 nM and an IC50 [3] of at most 5.01 nM. The IC50 [4] was over 50.1 nM.
`COc1ccc(S(=O)(=O)NCCCN2CCN(C)CC2)cc1-n1nc(C)c2cnc(-c3cnn4cccnc34)cc21` [Example 16, 4-methoxy-3-(3-methyl-6-(pyrazolo[1,5-a]pyrimidin-3-yl)-1H-pyrazolo[4,3-c]pyridin-1-yl)-N-(3-(4-methylpiperazin-1-yl)propyl)benzenesulfonamide] showed an IC50 [1] of over 50.1 nM, an IC50 [2] of over 50.1 nM and an IC50 [3] of 5.01 to 50.1 nM. It also gave an IC50 [4] of over 50.1 nM.

From patent US20240279240A1, “HETEROCYCLIC DERIVATIVES AS JANUS KINASE INHIBITORS” (CHIESI FARMACEUTICI S.P.A., priority 2021, published 2024)
